{"source": "patent US20170217982A1", "about": "“Compound isolated from Pseudolysimachion rotundum var. subintegrum, the composition comprising the same for treating allergic disease, inflammatory disease, asthma or chronic obstructive pulmonary disease and the use thereof” (YUNGJIN PHARMACEUTICAL CO., LTD, priority 2014, published 2017)", "tested_on": "COPD induced mice", "test": "Anti-COPD effect in cigarette smoke + LPS COPD mouse model", "type": "in vivo, C57BL/6N mouse", "conditions": "for activity of neutrophils elastase enzyme in BALF comparing with COPD induced group / reduced level of ROS in BALF comparing with COPD induced group / reduced level of neutrophils in BALF comparing with COPD induced group / reduced level of proteins in BALF comparing with COPD induced group / reduced level of IL-6 in BALF comparing with COPD induced group / reduced level of TNF-alpha in BALF comparing with COPD induced group: COPD mice; for reduced level of IL-6 in BALF comparing with COPD induced group / reduced level of TNF-alpha in BALF comparing with COPD induced group: ELISA", "protocol": "In order to determine the anti-COPD effect of inventive compounds in COPD animal model, following test was performed by using COPD induced mice as disclosed in the literature (Bhaysar, T. et al., J. Chronic Obstr. […]. Dis., 2008, 3, 477-481). Specific pathogen-free male C57BL/6N mouse (about 22-24 g), aged 6 weeks, which were routinely screened serologically for relevant respiratory pathogens, were purchased from Koatech Co. (koatech.co.kr, Seoul, Korea) and bred allowing to access freely to feed (antibiotic free, Samyang Oil & Feed Corp., Korea) and water in breeding room controlling the temperature of 22±2° C., and humidity of 55±15% at the light-dark cycle for 12 hours and acclimated with the experimental environment for 1 week. 2 kinds of test samples, […] ingredient: Roflumilast, 10 mg/kg) were dissolved in 0.5% sodium carboxymethyl cellulose ([…], Sigma-Aldrich, USA) and used as test samples. KS534, and Rolflumilast (ROF 11-492, HETERO, India) were orally administrated to the mice, 1 hour before prior the intratracheal instillation (i.t.). 3R4F Kentuchy Reference Cigarettes ([…], USA) was used as a standard cigarette for generating a cigarette smoke. The cigarette containing 9.4 mg of tar, 11 mg of TPM (total particle matter) and 12 mg of carbon monooxide per piece, was used after harmonizing with the temperature of 22±1° C. and humidity of 60±2% after opening for 48-72 hrs. The exposure of cigarette smoke was performed by using a cigarette smoke generator (DBL Co. Ltd., dhbiolink.com, Korea). The mice were divided into five groups: normal (NC), COPD (cigarette smoke with LPS intranasal instillation), Rof (10 mg/kg of roflumilast, p.o.+cigarette smoke with LPS intranasal instillation), and KS534-15 and 30 (15 mg/kg and 30 mg/kg of KS534, p.o.+cigarette smoke with LPS instillation, respectively). Exposure of cigarette smoke (one puff/min, 35 ml puff volume over 2 s, every 60 s, 8 cigarettes per day) was conducted using a cigarette smoke generator. The mice received 1 h of cigarette smoke exposure in an exposure chamber (50 cm×30 cm×30 cm) for 3 days. Roflumilast and piscroside C were administered to mice by oral lavage 1 h before cigarette smoke exposure for 3 days. LPS was intranasally instilled ([…] dissolved in 50 μL distilled water) under anesthesia 1 h after the final exposure to cigarette smoke. After the end of experiment, the blood, BALF, and pneumonocyte of each rat were isolated and collected to test. After finishing the experiment, rats were anaesthetized with Zoleti150 (3VX9, Virbac, France, p.o) and the blood was delivered through caudal veins. In order to isolate BALF from lung, the bronchus of right lung was ligated with suture and then performed to tracheostomy. IV-use catheter (16 GA, 3S-Cath, Dukwoo, Korea) was put into the bronchus, and both of bronchus and catheter (16 GA, 3S-Cath, Dukwoo, Korea) were fixed with suture. The injector containing 1 ml of DPBS 0.7 (Dubecco's phosphate-buffered saline, Invitrogen, USA) was connected thereto and DPBS was forced to circulate three times to isolate BALF. The right lung ligated with suture was isolated, fixed with 10% neutral formalin solution, and the remaining lung tissue was reserved in refrigerator at -70° C. The isolated BALF was centrifuged for 15 mins at 1500 rpm to prepare cell pellet and the supernatant was reserved in refrigerator at -70° C. for cytokine analysis. The cell pellet was suspended in DPBS, and the cell was attached to a slide glass using by cytospin centrifuge (CS03270047, Hanil, Korea). Diff-Quik staining (ZS1003, Sysmex, Japan) was performed and the cell was observed by optical microscopy (DM1000, Leica, German) to count the number of immunocyte in each test sample. The level of ROS in BALF isolated from the mice was determined by DCF-DA (dihydrodo chloro fluoresce indiacetate, 35854, Sigma-Aldrich, USA) and the final concentration of DCF-DA was adjusted to 20 μm in 200 μL to incubate 30 mins. […]"}
{"smiles": "O=C(CO)O[C@@H]1O[C@@H]2C[C@H]3[C@H](OC(=O)c4ccc(O)c(O)c4)[C@@H](Cl)[C@@](O)(CO2)[C@@H]13", "note": "[KS-534, (3R,5S,5aS,6R,7S,8R,8aS)-8-chloro-8a-hydroxy-5-(2-hydroxyacetoxy) hexahydro-1H-3,6-methanocyclopenta[e][1,3]dioxepin-7-yl3,4-dihydroxybenzoate]", "values": [{"measurement": "activity of neutrophils elastase enzyme in BALF comparing with COPD induced group", "setting": "15 mg/kg p.o.", "value": "remarkably reduced"}, {"measurement": "reduced level of ROS in BALF comparing with COPD induced group", "setting": "15 mg/kg p.o.", "value": 19.5, "unit": "%"}, {"measurement": "reduced level of neutrophils in BALF comparing with COPD induced group", "setting": "15 mg/kg p.o.", "value": 26.3, "unit": "%"}, {"measurement": "reduced level of proteins in BALF comparing with COPD induced group", "setting": "15 mg/kg p.o.", "value": 20.8, "unit": "%"}, {"measurement": "reduced level of IL-6 in BALF comparing with COPD induced group", "setting": "15 mg/kg p.o.", "value": 35.8, "unit": "%"}, {"measurement": "reduced level of TNF-alpha in BALF comparing with COPD induced group", "setting": "15 mg/kg p.o.", "value": 18.3, "unit": "%"}, {"measurement": "activity of neutrophils elastase enzyme in BALF comparing with COPD induced group", "setting": "30 mg/kg p.o.", "value": "remarkably reduced"}, {"measurement": "reduced level of ROS in BALF comparing with COPD induced group", "setting": "30 mg/kg p.o.", "value": 27.5, "unit": "%"}, {"measurement": "reduced level of neutrophils in BALF comparing with COPD induced group", "setting": "30 mg/kg p.o.", "value": 25.7, "unit": "%"}, {"measurement": "reduced level of proteins in BALF comparing with COPD induced group", "setting": "30 mg/kg p.o.", "value": 28.5, "unit": "%"}, {"measurement": "invasion of the inflamed cells in lung tissue (histology)", "setting": "30 mg/kg p.o., COPD mice (FIG. 14)", "value": "significantly reduced"}, {"measurement": "reduced level of IL-6 in BALF comparing with COPD induced group", "setting": "30 mg/kg p.o.", "value": 50.6, "unit": "%"}, {"measurement": "reduced level of TNF-alpha in BALF comparing with COPD induced group", "setting": "30 mg/kg p.o.", "value": 27.6, "unit": "%"}]}
